Source: patent US12281119B2, “Imidazo[2,1-f][1,2,4]triazin-4-amine derivatives as TLR7 agonist” (BEIGENE, LTD., priority 2019, dated 2025)

Target: T1, human TLR7 (Homo sapiens, UniProt Q9NYK1)
T1 sequence (Q9NYK1 27-1049): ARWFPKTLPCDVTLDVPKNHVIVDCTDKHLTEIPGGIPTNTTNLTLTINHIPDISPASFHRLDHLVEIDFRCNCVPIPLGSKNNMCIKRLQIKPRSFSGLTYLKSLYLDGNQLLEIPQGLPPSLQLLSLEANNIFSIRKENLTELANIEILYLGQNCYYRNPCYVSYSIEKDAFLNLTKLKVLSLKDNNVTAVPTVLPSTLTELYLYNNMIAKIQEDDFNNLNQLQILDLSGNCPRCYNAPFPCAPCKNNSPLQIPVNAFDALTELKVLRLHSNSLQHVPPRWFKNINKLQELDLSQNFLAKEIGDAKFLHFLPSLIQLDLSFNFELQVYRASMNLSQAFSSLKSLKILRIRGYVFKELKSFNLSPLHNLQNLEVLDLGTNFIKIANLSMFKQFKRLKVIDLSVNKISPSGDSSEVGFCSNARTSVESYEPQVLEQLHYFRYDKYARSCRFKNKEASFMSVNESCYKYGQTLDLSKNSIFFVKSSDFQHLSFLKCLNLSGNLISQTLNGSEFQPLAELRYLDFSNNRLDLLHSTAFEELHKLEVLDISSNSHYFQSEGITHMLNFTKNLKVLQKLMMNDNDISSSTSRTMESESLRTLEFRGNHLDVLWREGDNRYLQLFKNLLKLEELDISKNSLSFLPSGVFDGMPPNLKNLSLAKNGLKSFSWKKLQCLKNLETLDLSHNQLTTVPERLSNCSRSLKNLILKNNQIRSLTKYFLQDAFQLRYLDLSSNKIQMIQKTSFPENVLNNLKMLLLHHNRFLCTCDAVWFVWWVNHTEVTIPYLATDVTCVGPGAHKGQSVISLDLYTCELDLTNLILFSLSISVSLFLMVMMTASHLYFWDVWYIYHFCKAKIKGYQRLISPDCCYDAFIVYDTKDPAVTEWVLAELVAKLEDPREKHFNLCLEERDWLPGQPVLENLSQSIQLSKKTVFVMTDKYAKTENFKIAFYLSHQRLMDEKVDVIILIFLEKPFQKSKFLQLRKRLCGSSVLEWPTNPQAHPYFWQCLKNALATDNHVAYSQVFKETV
Assay: HEK293-Blue hTLR7 reporter assay (QUANTI-BLUE, SEAP readout)
Assay type: cell-based
Parameters: host or cells: HEK293 (HEK-Blue-hTLR7)
Conditions: HEK-Blue-hTLR7 cells, QUANTI-BLUE assay (A1-A76), 24 hrs
Description: HEK293-Blue hTLR7 Reporter Assay:
HEK-Blue-hTLR7 cell line (Invivogen, Cat. No. hkb-htlr7) was designed so that the expression of the secreted embryonic alkaline phosphatase (SEAP) was induced by activating NF-κ and AP-1 via stimulating human TLR7 with TLR7 agonists.
HEK-Blue-hTLR7 cells were seeded at a density of 4×10^4 cells/well in a volume of 180 μL in a 96-well plate in DMEM (Cat. No. 11965-092) supplemented with 10% (v/v) heat-inactivated fetal bovine serum (FBS) (Gibco, 10099-1441), 100 U/ml penicillin and 100 μg/ml streptomycin (Gibco, 15140122) containing […], […] and 10% (v/v) heat-inactivated fetal bovine serum. The cells were settled for 5 hrs, then treated with increasing amounts of tested compounds at 37° C. for 24 hrs. Then 20 μL of the supernatant from each well was incubated with 180 uL Quanti-blue substrate solution at 37° C. for 10-30 mins before the activity of the SEAP was determined at 620-655 nm using a spectrophotometer. The EC50 value for each compound was calculated with GraphPad Prism software using the sigmoidal dose-response function.

**Q.** `CCCCOc1nc(N)c2ncc(Cc3cccc(CN4CCCCC4)c3)n2n1` [Compound A7, 2-butoxy-7-(3-(piperidin-1-ylmethyl)benzyl)imidazo[2,1-f][1,2,4]triazin-4-amine] was tested. Which EC50 did it give?
**A.** Its EC50 is > 10000 nM.

**Q.** Which EC50 does the source give for `CCCCOc1nc(N)c2ncc(Cc3ccc(OCCCN(C)C)c(C(=O)OC)c3)n2n1` [Compound A57, methyl 5-((4-amino-2-butoxyimidazo[2,1-f][1,2,4]triazin-7-yl)methyl)-2-(3-(dimethylamino)propoxy)benzoate] here?
**A.** The EC50 was 375 nM.

**Q.** With `CCCCOc1nc(N)c2ncc(C(O)c3cc(OC)ccn3)n2n1` (stereo not drawn) [Compound A73, (4-amino-2-butoxyimidazo[2,1-f][1,2,4]triazin-7-yl)(4-methoxypyridin-2-yl)methanol] as the compound, how does the EC50 read?
**A.** Its EC50 is > 10000 nM.

**Q.** `CCCCOc1nc(N)c2ncc(Cc3ccc(N(C)CCN(C)C)nc3)n2n1` [Compound A4, N^1-(5-((4-amino-2-butoxyimidazo[2,1-f][1,2,4]triazin-7-yl)methyl)pyridin-2-yl)-N^1,N^2,N^2-trimethylethane-1,2-diamine] was tested. Which EC50 did it give?
**A.** The EC50 was 1850 nM.

**Q.** How did the EC50 turn out when `CCCCOc1nc(N)c2ncc(Cc3ccc(OC4C[C@H]5CC[C@@H](C4)N5CC)cc3F)n2n1` (stereo partly drawn) [Compound A49, 2-butoxy-7-(4-(((1R,5S)-8-ethyl-8-azabicyclo[3.2.1]octan-3-yl)oxy)-2-fluorobenzyl)imidazo[2,1-f][1,2,4]triazin-4-amine] was run?
**A.** Its EC50 is 4320 nM.

**Q.** With `CCCCOc1nc(N)c2ncc(Cc3ccc(CN)cc3)n2n1` [Compound A46, 7-(4-(aminomethyl)benzyl)-2-butoxyimidazo[2,1-f][1,2,4]triazin-4-amine] as the compound, how does the EC50 read?
**A.** Its EC50 is > 10000 nM.

**Q.** With `Nc1nc(OCc2cccnc2)nn2c(Cc3ccc(CN4CCCC4)cc3)cnc12` [Compound A68, 2-(pyridin-3-ylmethoxy)-7-(4-(pyrrolidin-1-ylmethyl)benzyl)imidazo[2,1-f][1,2,4]triazin-4-amine] as the compound, how does the EC50 read?
**A.** Its EC50 is > 10000 nM.

**Q.** How did the EC50 turn out when `CCCCOc1nc(N)c2ncc(Cc3ccccc3OCCCN(C)C)n2n1` [Compound A27, 2-butoxy-7-(2-(3-(dimethylamino)propoxy)benzyl)imidazo[2,1-f][1,2,4]triazin-4-amine] was run?
**A.** Its EC50 is > 10000 nM.

**Q.** With `Nc1nc(OCCCC(F)(F)F)nn2c(Cc3ccc(CN4CCCC4)cc3)cnc12` [Compound A69, 7-(4-(pyrrolidin-1-ylmethyl)benzyl)-2-(4,4,4-trifluorobutoxy)imidazo[2,1-f][1,2,4]triazin-4-amine] as the compound, how does the EC50 read?
**A.** The EC50 was 1240 nM.

**Q.** For `CCCCOc1nc(N)c2ncc(Cc3ccc(CN4CCC(N(C)C)C4)cc3)n2n1` (stereo not drawn) [Compound A44, 2-butoxy-7-(4-((3-(dimethylamino)pyrrolidin-1-yl)methyl)benzyl)imidazo[2,1-f][1,2,4]triazin-4-amine], which EC50 is on record?
**A.** The EC50 was 1010 nM.

**Q.** Which EC50 does the source give for `CCCCOc1nc(N)c2ncc(Cc3ccc(-c4ccc(CN5CCCC5)cc4)cc3)n2n1` [Compound A30, 2-butoxy-7-((4′-(pyrrolidin-1-ylmethyl)-[1,1′-biphenyl]-4-yl)methyl)imidazo[2,1-f][1,2,4]triazin-4-amine] here?
**A.** Its EC50 is 3520 nM.

**Q.** `CCCCOc1nc(N)c2ncc(Cc3ccc(OC4CCNC4)cc3F)n2n1` (stereo not drawn) [Compound A61, 2-butoxy-7-(2-fluoro-4-(pyrrolidin-3-yloxy)benzyl)imidazo[2,1-f][1,2,4]triazin-4-amine] was tested. Which EC50 did it give?
**A.** Its EC50 is 183 nM.

**Q.** For `CCCCOc1nc(N)c2ncc(Cc3cccc(CN)c3)n2n1` [Compound A70, 7-(3-(aminomethyl)benzyl)-2-butoxyimidazo[2,1-f][1,2,4]triazin-4-amine], which EC50 is on record?
**A.** The EC50 was > 10000 nM.

**Q.** How did the EC50 turn out when `CCCCOc1nc(N)c2ncc(Cc3ccc(CC4CCNCC4)cc3)n2n1` [Compound A33, 2-butoxy-7-(4-(piperidin-4-ylmethyl)benzyl)imidazo[2,1-f][1,2,4]triazin-4-amine] was run?
**A.** Its EC50 is 1060 nM.

**Q.** For `CCCCOc1nc(N)c2ncc(Cc3cc(CN4CCCC4)ccc3F)n2n1` [Compound A26, 2-butoxy-7-(2-fluoro-5-(pyrrolidin-1-ylmethyl)benzyl)Imidazo[2,1-f][1,2,4]triazin-4-amine], which EC50 is on record?
**A.** Its EC50 is > 10000 nM.

**Q.** How did the EC50 turn out when `CCCCOc1nc(N)c2ncc(Cc3ccc(C4CCN(C)C4)cc3)n2n1` (stereo not drawn) [Compound A66, 2-butoxy-7-(4-(1-methylpyrrolidin-3-yl)benzyl)imidazo[2,1-f][1,2,4]triazin-4-amine] was run?
**A.** The EC50 was 387 nM.

**Q.** For `CCCCOc1nc(N)c2ncc(Cc3ccc4c(c3)CN(C(C)C)CC4)n2n1` [Compound A9, 2-butoxy-7-((2-isopropyl-1,2,3,4-tetrahydroisoquinolin-7-yl)methyl)imidazo[2,1-f][1,2,4]triazin-4-amine], which EC50 is on record?
**A.** The EC50 was > 10000 nM.

**Q.** For `CCCCOc1nc(N)c2ncc(C(C)c3ccc(CN4CCCC4)cc3)n2n1` (stereo not drawn) [Compound A75, 2-butoxy-7-(1-(4-(pyrrolidin-1-ylmethyl)phenyl)ethyl)imidazo[2,1-f][1,2,4]triazin-4-amine], which EC50 is on record?
**A.** Its EC50 is > 10000 nM.

**Q.** For `CCCCOc1nc(N)c2ncc(Cc3ccc(OCCCN4CCOCC4)cc3)n2n1` [Compound A22, 2-butoxy-7-(4-(3-morpholinopropoxy)benzyl)imidazo[2,1-f][1,2,4]triazin-4-amine], which EC50 is on record?
**A.** The EC50 was 5710 nM.

**Q.** For `CCCCOc1nc(N)c2ncc(Cc3ccc(OCC(C)(C)CN(C)C)nc3)n2n1` [Compound A53, 2-butoxy-7-((6-(3-(dimethylamino)-2,2-dimethylpropoxy)pyridin-3-yl)methyl)imidazo[2,1-f][1,2,4]triazin-4-amine], which EC50 is on record?
**A.** The EC50 was 1430 nM.

**Q.** For `CCCCOc1nc(N)c2ncc(Cc3ccc(OCCN(C)C(C)=O)nc3)n2n1` [Compound A59, N-(2-((5-((4-amino-2-butoxyimidazo[2,1-f][1,2,4]triazin-7-yl)methyl)pyridin-2-yl)oxy)ethyl)-N-methylacetamide], which EC50 is on record?
**A.** The EC50 was > 10000 nM.

**Q.** For `CCCCOc1nc(N)c2ncc(Cc3cnc(OCC(C)(C)CN(C)C)c(Cl)c3)n2n1` [Compound A45, 2-butoxy-7-((5-chloro-6-(3-(dimethylamino)-2,2-dimethylpropoxy)pyridin-3-yl)methyl)imidazo[2,1-f][1,2,4]triazin-4-amine], which EC50 is on record?
**A.** Its EC50 is 3840 nM.

**Q.** `CCCCOc1nc(N)c2ncc(Cc3cnc(OC4CCNCC4)c(Cl)c3)n2n1` [Compound A40, 2-butoxy-7-((5-chloro-6-(piperidin-4-yloxy)pyridin-3-yl)methyl)imidazo[2,1-f][1,2,4]triazin-4-amine] was tested. Which EC50 did it give?
**A.** The EC50 was 602 nM.

**Q.** `CCCCOc1nc(N)c2ncc(Cc3ccc(CN4CCC(Oc5ccccc5)CC4)cc3)n2n1` [Compound A47, 2-butoxy-7-(4-((4-phenoxypiperidin-1-yl)methyl)benzyl)imidazo[2,1-f][1,2,4]triazin-4-amine] was tested. Which EC50 did it give?
**A.** Its EC50 is > 10000 nM.

**Q.** How did the EC50 turn out when `CCCCOc1nc(N)c2ncc(Cc3ccccc3CN3CCOCC3)n2n1` [Compound A14, 2-butoxy-7-(2-(morpholinomethyl)benzyl)imidazo[2,1-f][1,2,4]triazin-4-amine] was run?
**A.** The EC50 was > 10000 nM.

**Q.** With `CCCCOc1nc(N)c2ncc(Cc3ccc(CN4CCCC4)cc3F)n2n1` [Compound A20, 2-butoxy-7-(2-fluoro-4-(pyrrolidin-1-ylmethyl)benzyl)imidazo[2,1-f][1,2,4]triazin-4-amine] as the compound, how does the EC50 read?
**A.** Its EC50 is 1750 nM.

**Q.** How did the EC50 turn out when `CCCCOc1nc(N)c2ncc(Cc3ccc(OCCCN(C)C)c(F)c3)n2n1` [Compound A35, 2-butoxy-7-(4-(3-(dimethylamino)propoxy)-3-fluorobenzyl)imidazo[2,1-f][1,2,4]triazin-4-amine] was run?
**A.** The EC50 was 2070 nM.

**Q.** `CCCCOc1nc(N)c2ncc(Cc3cccc(OCCCN(C)C)c3)n2n1` [Compound A23, 2-butoxy-7-(3-(3(dimethylamino)propoxy)benzyl)imidazo[2,1-f][1,2,4]triazin-4-amine] was tested. Which EC50 did it give?
**A.** The EC50 was > 10000 nM.

Same assay, conditions: HEK-Blue-hTLR7 cells, QUANTI-BLUE assay (C1-C6), 24 hrs

**Q.** Which EC50 does the source give for `CCCCOc1nc(N)c2[nH]cc(Cc3cnc(N4CCNCC4)c(C)c3)c2n1` [Compound C6, 2-butoxy-7-((5-methyl-6-(piperazin-1-yl)pyridin-3-yl)methyl)-5H-pyrrolo [3,2-d]pyrimidin-4-amine] here?
**A.** The EC50 was 1080 nM.

**Q.** Which EC50 does the source give for `CCCCOc1cc(N)c2ncc(Cc3cnc(N4CCNCC4)c(C)c3)n2n1` [Compound C5, 6-butoxy-3-((5-methyl-6-(piperazin-1-yl)pyridin-3-yl)methyl)imidazo[1,2-b]pyridazin-8-amine] here?
**A.** Its EC50 is > 10000 nM.
